According to patent publication US11197859B2 (AUTIFONY THERAPEUTICS LIMITED, priority 2010, dated 2021):
Read-outs that look alike come from different tables or passages of the source.

Assays:
[1] = Blood concentrations in satellite animals of the electroshock seizure study; type: in vivo; conditions: CD, whole blood, po, rat, 2 hours after dosing
Protocol: (§1) Testing involved determining the threshold for tonic hindlimb extensor seizures using a Hugo Sachs Electronik stimulator which delivers a constant current of 0.3 second duration, 50 Hz, sinewave form, fully adjustable between 1 and 300 mA. Stimuli were delivered via corneal electrodes (Stean T O, Atkins A R, Heidbreder C A, Quinn L P, Trail B K, Upton N. (2005) Br J Pharmacol. 144(5):628-35). Seizure threshold was determined using the ‘up and down’ method of Kimball et al. (1957)(Kimball A W, Burnett W T Jr, Doherty D G. (1957) Radiat Res. 7(1):1-12). The first animal tested in each group was stimulated with a current that might be expected to be close to the threshold for induction of a seizure. If a tonic seizure was not induced, then the next animal in the group received a stimulus 5 mA higher. If a tonic seizure was induced, then the next animal received a stimulus 5 mA lower. This is repeated for all animals within the control (vehicle) group. In the case of groups treated with a test compound steps of 5 to 10 mA were used. At the end of the study, blood samples were taken for analysis of the drug concentrations in this compartment (n=4/group).
(§2) All doses were calculated as base. Sodium valproate was suspended in Methocell 1% (w/v) and dosed via the oral (p.o.) route at 5 mL/kg 1 hour before test. Reference Example RE1 was dissolved in DMSO and then suspended in Methocell 1% (w/v) to a final DMSO concentration of 5% (v/v). Reference Example RE1 was then dosed p.o. at 5 mL/kg 2 hours before test.
Blood concentrations of Reference Example RE1 measured in satellite animals 2 hours after dosing were 5.3 and 9.1 μg/mL following the doses of 30 and 60 mg/kg p.o., respectively. These concentrations are equivalent to unbound concentrations in blood of 1.3 and 2.2 μM, respectively, and thus are consistent with concentrations of Reference Example RE1 that produce a significant increase in Kv3-mediated currents observed in the in vitro recombinant human Kv3 electrophysiology assay, described above.

Male CD rats = assay: Electroshock seizure model in rats; type: in vivo, rat; conditions: 2 hours before test
Protocol: Male CD rats (85-130 g) were supplied by Charles River, Italy.
as §1, §2
Induction of seizure is measured as an all-or-nothing effect scored as either present (+) or absent (0) for each animal. […] Drug effects were calculated as the % change in CC50. Significant differences between drug-treated animals and appropriate vehicle treated groups were assessed according to the methods of Litchfield and Wilcoxon (1949).

Male CD-1 mice = assay: Psychostimulant (amphetamine)-induced hyperactivity in mice; conditions: AMPH 2 mg/kg i.p. + compound 10 mg/kg p.o. 30 min before; over 60 min; mean ± sem
MNTB neurons = assay: High-voltage activated potassium currents in MNTB neurons, in vitro; type: cell-based, mouse; conditions: 10 microM in continuing presence of TEA (1 mM); effect on the TEA-induced reduction
Protocol: Male CBA/Ca mice (aged 12-16 days) were used in these experiments (in accordance with the UK Animals Scientific Procedures Act, 1986). Brain slices containing the medial nucleus of the trapezoid body (MNTB) were prepared as described previously (Brew and Forsythe, 2005).
Chemicals and reagents were purchased from Sigma, (Poole, UK) unless otherwise noted. Reference Example RE1 was dissolved in DMSO and diluted in ACSF to the required concentration.
Recordings from identified MNTB neurons were conducted as previously described (Brew and Forsythe, 2005). Slices was placed in a superfusion chamber on an inverted microscope stage and continuously perfused with gassed (95% O2-5% CO2) ACSF at a rate of 1 ml min-1 at room temperature. Whole-cell recordings were made from visually identified MNTB neurons using an […] amplifier (Molecular Devices, Union City, Calif., USA). Patch solution comprised (in mM) potassium gluconate (97.5), KCl (32.5), Hepes (40), EGTA (5), MgCl2 (1), Na2phosphocreatin (5), pH 7.2 with KOH. Pipettes had resistances of 3-5 MΩ and series resistances were 6-10 MΩ (compensated by 70%, 10 μs lag). Access resistance was frequently monitored and the recording discarded if increases were more than 2 MΩ. […]

Adult male CD rats = assay: Assessment of physiological sleep in the rat (EEG/EMG telemetry); type: in vivo; conditions: 60 mg/kg oral at CT18, 5 hour period following dosing
Protocol: Adult male CD rats (C. River, Italy) were implanted with telemetric probes and housed singly, under controlled condition (temperature 18-20° C.; relative humidity 45-50%; 12 hours light-dark cycle, lights on at 3 p.m., designated Circadian Time (CT) 0) with free access to food and water.
Reference Example RE1 was formulated in tween (0.1% v/v) and HPMC (0.5% v/v) and was administered orally at doses of 10, 30 and 60 mg/kg (vol. 2 ml/kg) at CT18 (6 hours before lights on). The electroencephalogram (EEG) and electromyogram (EMG) were recorded continuously, starting immediately after administration, using telemetric apparatus (DSI Dataquest® A.R.T. system). EEG and EMG recordings were analysed to evaluate sleep patterns using sleepSign® (Kissei Comtec Co.). Statistical analyses (1-way Anova followed by a Dunnett's test) was performed using Statistica-8 software.

In the case of `CC[C@H]1NC(=O)N(c2ccc(Oc3ccc(C)c(OC)c3)nc2)C1=O` [RE1, (5R)-5-ethyl-3-(6-{[4-methyl-3-(methyloxy)phenyl]oxy}-3-pyridinyl)-2,4-imidazolidinedione], the concentration at 2 h ([1]; 30 mg/kg p.o., read-out: blood concentration) is reported as 5300 ng/mL, the concentration at 2 h ([1]; 30 mg/kg p.o., read-out: unbound concentration in blood) is reported as 1300 nM and the concentration at 2 h ([1]; 60 mg/kg p.o., read-out: blood concentration) is reported as 9100 ng/mL. The concentration at 2 h ([1]; 60 mg/kg p.o., read-out: unbound concentration in blood) was 2200 nM, the “increase in seizure threshold (% change in CC50)” value (Male CD rats; 30 mg/kg p.o.) was 91% and the “increase in seizure threshold (% change in CC50)” value (Male CD rats; 60 mg/kg p.o.) was 218%. For the same compound, the “Total Distance Travelled (cm)” value (Male CD-1 mice) was 15267 ± 3166 cm, the “amplitude of outward high voltage-activated potassium currents evoked by voltage steps to +40 mV” value (MNTB neurons) was “reversed” and the “time spent in REM sleep” value (Adult male CD rats) was “did not affect”. For the same compound, the “time spent in non-REM sleep” value (Adult male CD rats; p<0.05, n=8) was “significantly increased” and the total sleep time (Adult male CD rats; p<0.05, n=8) was “significantly increased”.
